This assay concerns P388 leukemia ip, CD2F1 mice, survival T/C. Briefly: NCI In Vivo Anticancer Drug Screen. Data for tumor model P388 Leukemia (intraperitoneal) in CD2F1 (CDF1) mice. Conditions: endpoint: median survival time, higher = longer survival. The method, boiled down: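 Mice carrying the transplanted tumor received test compound or vehicle. Survival was recorded in each group, and the value is the treated-group measurement divided by that of the vehicle-treated control group.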

Each structure is given as a SMILES string. Values joined by “and” are separate entries in the source; they are usually repeats but may differ in a detail not shown here. Identical values can stand only once. Toxic doses and inconclusive results are not listed.

Our source for the T/C values is PubChem BioAssay AID330 (DTP/NCI, 2004).

Take `CC(=O)[C@]1(O)Cc2c(O)c3c(c(O)c2[C@@H](OC2CC(N)C(O)C(C)O2)C1)C(=O)c1c(O)cccc1C3=O` (stereo not given in full): the T/C runs as follows: (dose: 0.05 mg/kg/injection, schedule: Q01DX009 (ip), vehicle: saline) 150 % of control; (dose: 0.08 mg/kg/injection, schedule: Q01DX009 (ip), vehicle: saline) 159 % of control; (dose: 0.08 mg/kg/injection, schedule: Q04DX003 (ip), vehicle: water) 100 % of control and 97 % of control; (dose: 0.1 mg/kg/injection, schedule: Q04DX003 (ip), vehicle: saline) 123 % of control; (dose: 0.14 mg/kg/injection, schedule: Q01DX009 (ip), vehicle: saline) 177 % of control; (dose: 0.16 mg/kg/injection, schedule: Q04DX003 (ip), vehicle: water) 109 % of control and 87 % of control. For the same compound, the T/C runs as follows: (dose: 0.25 mg/kg/injection, schedule: Q04DX003 (ip), vehicle: water) 119 % of control and 94 % of control; (dose: 0.3 mg/kg/injection, schedule: Q04DX003 (ip), vehicle: saline) 154 % of control; (dose: 0.32 mg/kg/injection, schedule: Q04DX003 (ip), vehicle: saline) 159 % of control; (dose: 0.36 mg/kg/injection, schedule: Q04DX003 (ip), vehicle: saline) 160 % of control and 173 % of control; (dose: 0.36 mg/kg/injection, schedule: Q04DX003 (ip), vehicle: water) 161 % of control; (dose: 0.39 mg/kg/injection, schedule: Q01DX001 (ip), vehicle: saline) 159 % of control. The T/C (dose: 0.39 mg/kg/injection, schedule: Q01DX009 (ip), vehicle: saline) is 100 % of control; the T/C (dose: 0.39 mg/kg/injection, schedule: Q04DX003 (ip), vehicle: saline) was 163 % of control; the T/C (dose: 0.4 mg/kg/injection, schedule: Q04DX003 (ip), vehicle: saline) is 154 % of control; the T/C (dose: 0.43 mg/kg/injection, schedule: Q01DX001 (ip), vehicle: saline) was 152 % of control and 160 % of control; the T/C (dose: 0.43 mg/kg/injection, schedule: Q04DX003 (ip), vehicle: saline) was 165 % of control; the T/C (dose: 0.5 mg/kg/injection, schedule: Q04DX003 (ip), vehicle: water) is 116 % of control and 124 % of control. Also, the T/C is, setting by setting: (dose: 0.54 mg/kg/injection, schedule: Q04DX003 (ip), vehicle: saline) 161 % of control; (dose: 0.6 mg/kg/injection, schedule: Q04DX003 (ip), vehicle: saline) 154 % of control and 168 % of control; (dose: 0.6 mg/kg/injection, schedule: Q04DX003 (ip), vehicle: water) 170 % of control; (dose: 0.6 mg/kg/injection, schedule: Q04DX003 (oral), vehicle: saline) 112 % of control; (dose: 0.64 mg/kg/injection, schedule: Q04DX003 (ip), vehicle: water) 109 % of control and 115 % of control and 274 % of control; (dose: 0.65 mg/kg/injection, schedule: Q01DX001 (ip), vehicle: saline) 172 % of control. Besides, the T/C is, setting by setting: (dose: 0.65 mg/kg/injection, schedule: Q04DX003 (ip), vehicle: saline) 172 % of control; (dose: 0.72 mg/kg/injection, schedule: Q01DX001 (ip), vehicle: saline) 161 % of control and 180 % of control; (dose: 0.72 mg/kg/injection, schedule: Q04DX003 (ip), vehicle: saline) 167 % of control; (dose: 0.9 mg/kg/injection, schedule: Q04DX003 (ip), vehicle: saline) 160 % of control and 186 % of control; (dose: 1.0 mg/kg/injection, schedule: Q04DX003 (ip), vehicle: saline) 92 % of control and 94 % of control; (dose: 1.0 mg/kg/injection, schedule: Q04DX003 (ip), vehicle: water) 102 % of control. Besides, the T/C is 110 % of control (dose: 1.0 mg/kg/injection, schedule: Q04DX003 (oral), vehicle: saline); 95 % of control (dose: 1.08 mg/kg/injection, schedule: Q01DX001 (ip), vehicle: saline); 100 % of control (dose: 1.08 mg/kg/injection, schedule: Q04DX003 (ip), vehicle: saline); 105 % of control (dose: 1.2 mg/kg/injection, schedule: Q01DX001 (ip), vehicle: saline); 110 % of control (dose: 1.2 mg/kg/injection, schedule: Q01DX001 (oral), vehicle: saline); 110 % of control (dose: 1.2 mg/kg/injection, schedule: Q04DX003 (ip), vehicle: saline). Also, the T/C reads like this: (dose: 1.5 mg/kg/injection, schedule: Q04DX003 (ip), vehicle: saline) 108 % of control; (dose: 1.67 mg/kg/injection, schedule: Q04DX003 (oral), vehicle: saline) 115 % of control; (dose: 2.0 mg/kg/injection, schedule: Q01DX001 (oral), vehicle: saline) 102 % of control; (dose: 2.0 mg/kg/injection, schedule: Q04DX003 (ip), vehicle: water) 116 % of control; (dose: 2.78 mg/kg/injection, schedule: Q04DX003 (oral), vehicle: saline) 106 % of control and 110 % of control; (dose: 3.2 mg/kg/injection, schedule: Q04DX003 (ip), vehicle: saline) 105 % of control. The T/C was 111 % of control and 116 % of control (dose: 3.33 mg/kg/injection, schedule: Q01DX001 (oral), vehicle: saline); 113 % of control (dose: 4.63 mg/kg/injection, schedule: Q04DX003 (oral), vehicle: saline); 114 % of control (dose: 5.56 mg/kg/injection, schedule: Q01DX001 (oral), vehicle: saline); 99 % of control (dose: 6.4 mg/kg/injection, schedule: Q04DX003 (ip), vehicle: saline); 166 % of control (dose: 7.72 mg/kg/injection, schedule: Q04DX003 (oral), vehicle: saline); 152 % of control (dose: 9.26 mg/kg/injection, schedule: Q01DX001 (oral), vehicle: saline). For the same compound, the T/C by setting is: (dose: 12.9 mg/kg/injection, schedule: Q04DX003 (oral), vehicle: saline) 164 % of control; (dose: 6.25 micrograms/kg/injection, schedule: Q04DX003 (ip), vehicle: saline) 120 % of control; (dose: 15.0 micrograms/kg/injection, schedule: Q04DX003 (ip), vehicle: saline) 111 % of control; (dose: 25.0 micrograms/kg/injection, schedule: Q04DX003 (ip), vehicle: saline) 116 % of control; (dose: 31.0 micrograms/kg/injection, schedule: Q04DX003 (ip), vehicle: saline) 111 % of control; (dose: 50.0 micrograms/kg/injection, schedule: Q04DX003 (ip), vehicle: saline) 111 % of control. Also, the T/C (dose: 62.0 micrograms/kg/injection, schedule: Q04DX003 (ip), vehicle: saline) was 107 % of control; the T/C (dose: 125.0 micrograms/kg/injection, schedule: Q04DX003 (ip), vehicle: saline) was 107 % of control; the T/C (dose: 200.0 micrograms/kg/injection, schedule: Q04DX003 (ip), vehicle: saline) was 119 % of control; the T/C (dose: 500.0 micrograms/kg/injection, schedule: Q04DX003 (ip), vehicle: saline) was 156 % of control; the T/C (dose: 800.0 micrograms/kg/injection, schedule: Q04DX003 (ip), vehicle: saline) was 122 % of control; the T/C (dose: 1000.0 micrograms/kg/injection, schedule: Q04DX003 (ip), vehicle: saline) is 166 % of control. Also, the T/C is, setting by setting: (dose: 2000.0 micrograms/kg/injection, schedule: Q04DX003 (ip), vehicle: saline) 88 % of control; (dose: 3200.0 micrograms/kg/injection, schedule: Q04DX003 (ip), vehicle: saline) 103 % of control; (dose: 6400.0 micrograms/kg/injection, schedule: Q04DX003 (ip), vehicle: saline) 116 % of control.

For the compound `COc1c2occc2c(CN)c2ccc(=O)oc12`, the T/C is, setting by setting: (dose: 7.5 mg/kg/injection, schedule: Q01DX005 (ip), vehicle: saline) 98 % of control; (dose: 15.0 mg/kg/injection, schedule: Q01DX005 (ip), vehicle: saline) 99 % of control; (dose: 30.0 mg/kg/injection, schedule: Q01DX005 (ip), vehicle: saline) 97 % of control.

Turning to `COc1nc(N(CCO)c2ccccc2)nc(N(CCO)c2ccccc2)n1`, the T/C is 96 % of control (dose: 50.0 mg/kg/injection, schedule: Q01DX005 (ip), vehicle: saline with Tween-80); 93 % of control (dose: 100.0 mg/kg/injection, schedule: Q01DX005 (ip), vehicle: saline with Tween-80); 92 % of control (dose: 200.0 mg/kg/injection, schedule: Q01DX005 (ip), vehicle: saline with Tween-80).

`O=C(Nc1cccc2ccccc12)[C@H]1C[C@H]2C=C[C@@H]1C2`: the T/C (dose: 100.0 mg/kg/injection, schedule: Q04DX003 (ip), vehicle: saline with Tween-80) was 95 % of control; the T/C (dose: 200.0 mg/kg/injection, schedule: Q04DX003 (ip), vehicle: saline with Tween-80) is 90 % of control; the T/C (dose: 400.0 mg/kg/injection, schedule: Q04DX003 (ip), vehicle: saline with Tween-80) was 113 % of control.

Turning to `O=C1CNC(=O)N1CN1CCOCC1`, the T/C is 107 % of control (dose: 25.0 mg/kg/injection, schedule: Q01DX005 (ip), vehicle: Klucel (hydroxypropylcellulose) (HPC)); 107 % of control and 111 % of control (dose: 50.0 mg/kg/injection, schedule: Q01DX005 (ip), vehicle: Klucel (hydroxypropylcellulose) (HPC)); 118 % of control (dose: 100.0 mg/kg/injection, schedule: Q01DX005 (ip), vehicle: Klucel (hydroxypropylcellulose) (HPC)).
